Results taken from patent publication US7741350B1 (Cara Therapeutics, Inc., priority 2009, dated 2010).
Like-named read-outs stand apart in the source and are kept apart here.

Legend:
[1] = target: human CB1 receptor (hCB1) (Homo sapiens, UniProt P21554); assay: cAMP assay at human CB1 receptor; type: cell-based; conditions: hCB1R; maximum measurable range 30 μM; read-out: EC50 (Potency at Human CB1 determined by cAMP Assay)
Method: The ability of each of the compounds to act as agonists or inverse agonists at human CB2 and CB1 receptors (hCB2, hCB1, respectively) and at the rat CB2 receptor (rCB2) was determined by measuring changes in intracellular cyclic AMP (cAMP) levels as described in U.S. Pat. No. 7,517,874.
TR-FRET was measured using a 330-380 nm excitation filter, 615 nm and 665 nm emission filters, dichroic minor 380 nm and Z=10 mm. cAMP concentrations in each well were back-calculated from a cAMP standard curve run concurrently during each assay. Each plate contained 16 wells of forskolin stimulated cells and 16 wells of forskolin plus 1 μM CP55,940-treated cells. Concentrations of cAMP were expressed as a percent of the difference of these two groups of wells. Concentration-response data including EC50 (the concentration of compound producing 50% of the maximal response) and intrinsic activity (the percent maximal activation compared to full activation by CP55, 940) were determined using a four-parameter non-linear regression algorithm (CambridgeSoft Bioassay).

[2] = target: human CB2 receptor (hCB2) (Homo sapiens, UniProt P34972); assay: cAMP assay at human CB2 receptor; type: cell-based; conditions: hCB2R, maximum measurable range 30 μM
Sequence of human CB2 receptor (hCB2) (P34972 whole entry): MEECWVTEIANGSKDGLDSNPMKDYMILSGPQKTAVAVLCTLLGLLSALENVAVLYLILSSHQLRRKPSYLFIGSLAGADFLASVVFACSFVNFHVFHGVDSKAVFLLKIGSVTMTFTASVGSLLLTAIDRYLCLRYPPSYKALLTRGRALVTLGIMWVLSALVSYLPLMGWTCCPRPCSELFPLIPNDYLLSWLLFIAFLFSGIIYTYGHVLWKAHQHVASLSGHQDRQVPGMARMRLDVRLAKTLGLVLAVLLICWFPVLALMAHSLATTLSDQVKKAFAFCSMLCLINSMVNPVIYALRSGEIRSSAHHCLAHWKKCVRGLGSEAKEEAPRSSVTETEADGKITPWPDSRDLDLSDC
Method: TR-FRET was measured using a 330-380 nm excitation filter, 615 nm and 665 nm emission filters, dichroic minor 380 nm and Z=10 mm. cAMP concentrations in each well were back-calculated from a cAMP standard curve run concurrently during each assay. Each plate contained 16 wells of forskolin stimulated cells and 16 wells of forskolin plus 1 μM CP55,940-treated cells. Concentrations of cAMP were expressed as a percent of the difference of these two groups of wells.

[3] = EC50 (Potency at Human CB2 determined by cAMP Assay)
[4] = read-out: EC50 (Potency at Human CB2 determined by cAMP Assay)

Sequence of human CB1 receptor (hCB1) (P21554 whole entry): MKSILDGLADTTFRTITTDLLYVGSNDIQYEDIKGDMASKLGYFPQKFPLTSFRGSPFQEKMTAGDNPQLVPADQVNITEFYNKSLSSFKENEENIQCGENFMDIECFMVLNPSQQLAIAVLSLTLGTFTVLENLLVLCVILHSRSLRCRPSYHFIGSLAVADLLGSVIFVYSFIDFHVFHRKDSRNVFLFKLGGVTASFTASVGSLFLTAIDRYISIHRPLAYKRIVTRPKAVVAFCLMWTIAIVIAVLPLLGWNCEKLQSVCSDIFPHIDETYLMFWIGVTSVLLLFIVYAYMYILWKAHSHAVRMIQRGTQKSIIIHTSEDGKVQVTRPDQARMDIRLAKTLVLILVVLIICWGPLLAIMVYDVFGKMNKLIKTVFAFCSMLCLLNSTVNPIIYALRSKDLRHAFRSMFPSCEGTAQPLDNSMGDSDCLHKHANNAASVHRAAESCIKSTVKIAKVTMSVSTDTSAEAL

Structure (SMILES) | EC50 [1] [nM] | EC50 [2, 3] [nM] | EC50 [2, 4] [nM]
CNC(=O)[C@@H](NC(=O)n1nc(-c2ccc(F)c(F)c2)c2c1CCC(O)C2)C(C)(C)C (mixture of isomers) [Compound 67, 3-(3,4-difluorophenyl)-N—((S)-3,3-dimethyl-1-(methylamino)-1-oxobutan-2-yl)-5-hydroxy-4,5,6,7-tetrahydro-1H-indazole-1-carboxamide] | < 1000 | < 1000 | –
CNC(=O)[C@@H](NC(=O)n1nc(-c2ccc(F)c(F)c2)c2c1CCCC2)C(C)(C)C [Compound 29, (S)-3-(3,4-difluorophenyl)-N-(3,3-dimethyl-1-(methylamino)-1-oxobutan-2-yl)-4,5,6,7-tetrahydro-1H-indazole-1-carboxamide] | < 1000 | < 1000 | –
CNC(=O)[C@@H](NC(=O)n1nc(-c2cc(F)c(F)cc2F)c2c1CCOC2)C(C)(C)C [Compound 30, (S)—N-(3,3-dimethyl-1-(methylamino)-1-oxobutan-2-yl)-3-(2,4,5-trifluorophenyl)-6,7-dihydropyrano[4,3-c]pyrazole-1(4H)-carboxamide] | < 1000 | < 1000 | –
CC(C)(C)[C@H](NC(=O)n1nc(-c2cc(F)c(F)cc2F)c2c1CCOC2)C(=O)N1CC[C@H](O)C1 [Compound 31, N—((S)-1-((S)-3-hydroxypyrrolidin-1-yl)-3,3-dimethyl-1-oxobutan-2-yl)-3-(2,4,5-trifluorophenyl)-6,7-dihydropyrano[4,3-c]pyrazole-1(4H)-carboxamide] | < 1000 | – | < 1000
CN1CCN(C(=O)[C@@H](NC(=O)n2nc(-c3cc(F)c(F)cc3F)c3c2CCOC3)C(C)(C)C)CC1 [Compound 32, (S)—N-(3,3-dimethyl-1-(4-methylpiperazin-1-yl)-1-oxobutan-2-yl)-3-(2,4,5-trifluorophenyl)-6,7-dihydropyrano[4,3-c]pyrazole-1(4H)-carboxamide] | < 1000 | < 1000 | –
CC(C)(C)[C@@H](CO)NC(=O)n1nc(-c2cc(F)c(F)cc2F)c2c1CCOC2 [Compound 33, (S)—N-(1-hydroxy-3,3-dimethylbutan-2-yl)-3-(2,4,5-trifluorophenyl)-6,7-dihydropyrano[4,3-c]pyrazole-1(4H)-carboxamide] | < 1000 | < 1000 | –
COC(=O)[C@@H](NC(=O)n1nc(-c2cc(F)c(F)cc2F)c2c1CCOC2)C(C)(C)C [Compound 34, (S)-methyl 3,3-dimethyl-2-(3-(2,4,5-trifluorophenyl)-1,4,6,7-tetrahydropyrano[4,3-c]pyrazole-1-carboxamido)butanoate] | < 1000 | < 1000 | –
CNC(=O)[C@@H](NC(=O)n1nc(-c2cc(F)c(F)cc2F)c2c1CN(C)CC2)C(C)(C)C [Compound 38, (S)—N-(3,3-dimethyl-1-(methylamino)-1-oxobutan-2-yl)-6-methyl-3-(2,4,5-trifluorophenyl)-4,5,6,7-tetrahydro-1H-pyrazolo[3,4-c]pyridine-1-carboxamide] | < 1000 | < 1000 | –
CNC(=O)[C@@H](NC(=O)n1nc(-c2cc(F)c(F)cc2F)c2c1CCCN2C)C(C)(C)C [Compound 39, (S)—N-(3,3-dimethyl-1-(methylamino)-1-oxobutan-2-yl)-4-methyl-3-(2,4,5-trifluorophenyl)-4,5,6,7-tetrahydro-1H-pyrazolo[4,3-b]pyridine-1-carboxamide] | < 1000 | < 1000 | –
CN1CCc2c(c(-c3cc(F)c(F)cc3F)nn2C(=O)N[C@H](C(=O)NCCO)C(C)(C)C)C1 [Compound 40, (S)—N-(1-(2-hydroxyethylamino)-3,3-dimethyl-1-oxobutan-2-yl)-5-methyl-3-(2,4,5-trifluorophenyl)-4,5,6,7-tetrahydro-1H-pyrazolo[4,3-c]pyridine-1-carboxamide] | < 1000 | < 1000 | –
CN1CCc2c(c(-c3cc(F)c(F)cc3F)nn2C(=O)N[C@H](C(N)=O)C(C)(C)C)C1 [Compound 41, (S)—N-(1-amino-3,3-dimethyl-1-oxobutan-2-yl)-5-methyl-3-(2,4,5-trifluorophenyl)-4,5,6,7-tetrahydro-1H-pyrazolo[4,3-c]pyridine-1-carboxamide] | < 1000 | – | > 1000
CNC(=O)[C@@H](NC(=O)n1nc(-c2ccc(F)c(F)c2)c2c1CCN(C)C2)C(C)(C)C [Compound 42, (S)-3-(3,4-difluorophenyl)-N-(3,3-dimethyl-1-(methylamino)-1-oxobutan-2-yl)-5-methyl-4,5,6,7-tetrahydro-1H-pyrazolo[4,3-c]pyridine-1-carboxamide] | < 1000 | < 1000 | –
CNC(=O)[C@@H](NC(=O)n1nc(-c2ccc(C(F)(F)F)cc2F)c2c1CCN(C)C2)C(C)(C)C [Compound 43, (S)—N-(3,3-dimethyl-1-(methylamino)-1-oxobutan-2-yl)-3-(2-fluoro-4-(trifluoromethyl)phenyl)-5-methyl-4,5,6,7-tetrahydro-1H-pyrazolo[4,3-c]pyridine-1-carboxamide] | < 1000 | – | > 1000
CNC(=O)[C@@H](NC(=O)n1nc(C(C)(C)C)c2c1CCN(C)C2)C(C)(C)C [Compound 44, (S)-3-tert-butyl-N-(3,3-dimethyl-1-(methylamino)-1-oxo-butan-2-yl)-5-methyl-4,5,6,7-tetrahydro-1H-pyrazolo[4,3-c]pyridine-1-carboxamide] | > 1000 | < 1000 | –
CN1CCc2c(c(-c3ccc(F)c(F)c3)nn2C(=O)N2CCC(O)CC2)C1 [Compound 45, (3-(3,4-difluorophenyl)-5-methyl-4,5,6,7-tetrahydro-1H-pyrazolo[4,3-c]pyridin-1-yl)(4-hydroxypiperidin-1-yl)methanone] | > 1000 | – | > 1000
CN1CCc2c(c(-c3ccc(F)c(F)c3)nn2C(=O)NC(C)(C)C)C1 [Compound 46, N-tert-butyl-3-(3,4-difluorophenyl)-5-methyl-4,5,6,7-tetrahydro-1H-pyrazolo[4,3-c]pyridine-1-carboxamide] | < 1000 | – | > 1000
CN1CCc2c(c(-c3ccc(F)c(F)c3)nn2C(=O)N[C@H](C(=O)N2CC[C@H](O)C2)C(C)(C)C)C1 [Compound 47, 3-(3,4-difluorophenyl)-N—((S)-1-((S)-3-hydroxypyrrolidin-1-yl)-3,3-dimethyl-1-oxobutan-2-yl)-5-methyl-4,5,6,7-tetrahydro-1H-pyrazolo[4,3-c]pyridine-1-carboxamide] | < 1000 | – | > 1000
CN1CCc2c(c(-c3ccc(F)c(F)c3)nn2C(=O)N[C@H](CO)C(C)(C)C)C1 [Compound 48, (S)-3-(3,4-difluorophenyl)-N-(1-hydroxy-3,3-dimethylbutan-2-yl)-5-methyl-4,5,6,7-tetrahydro-1H-pyrazolo[4,3-c]pyridine-1-carboxamide] | > 1000 | < 1000 | –
CC(C)C[C@H](NC(=O)n1nc(-c2ccc(F)c(F)c2)c2c1CCN(C)C2)C(N)=O [Compound 49, (S)—N-(1-amino-4-methyl-1-oxopentan-2-yl)-3-(3,4-difluorophenyl)-5-methyl-4,5,6,7-tetrahydro-1H-pyrazolo[4,3-c]pyridine-1-carboxamide] | < 1000 | < 1000 | –
CC[C@H](C)[C@H](NC(=O)n1nc(-c2ccc(F)c(F)c2)c2c1CCN(C)C2)C(N)=O [Compound 50, N-((2S,3S)-1-amino-3-methyl-1-oxopentan-2-yl)-3-(3,4-difluorophenyl)-5-methyl-4,5,6,7-tetrahydro-1H-pyrazolo[4,3-c]pyridine-1-carboxamide] | < 1000 | < 1000 | –
